Results taken from article PMC7026589, “Sensitive CometChip assay for screening potentially carcinogenic DNA adducts by trapping DNA repair intermediates” (Nucleic Acids Research, 2019).
“And” between values parts separate entries of the source, which are not always exact repeats. Equal values may be shown once. Read-outs that look alike come from different tables or passages of the source.

Key:
HepaRG™ cells [1] = system: HepaRG™ cells
Description: Cryopreserved HepaRG™ (HPRGC10), a terminally differentiated hepatic cell line, was purchased from ThermoFisher Scientific (Waltham, MA). HepaRG™ was thawed and cultured according to manufacturer's instructions. Briefly, the general purpose working medium was WEM supplemented with 1X GlutaMAX™ and 1X HepaRG™ Thaw, Plate, & General Purpose Medium Supplement. The metabolism working medium was WEM supplemented with 1X GlutaMAX™ and HepaRG™ Maintenance/Metabolism Medium Supplement. HepaRG™ cells were thawed in the general purpose working medium and plated in a 96-well plate coated with collagen I at 100 000 cells/well. One day after plating, the general purpose working medium was changed to the metabolism working medium. The metabolism working medium was renewed on day 4 and day 6 after plating. On day 7, the cells were treated in the metabolism working medium.
(§1) To load cells into microwells, ∼2000–200 000 cells in suspension were placed into each macrowell, and the chip was incubated at 37°C in the presence of 5% CO2 for 15 min. Cell were loaded into microwells by gravity, and excess cells were then washed off with PBS by shear force. The chip was covered with a layer of overlay agarose (1% w/v low-melting point agarose solution in PBS, kept molten at 43°C until use). For complete gelation of the overlay agarose, the chip was kept at room temperature for two minutes followed by 2 min at 4°C.
(§2) The alkaline comet assay was performed as previously ([15],[79]). Sodium chloride (NaCl, 7581), disodium EDTA (Na2EDTA, 4931), and sodium hydroxide pellets (NaOH, 7708) were purchased from VWR, Radnor, PA. Trizma® base (T1503), Trizma® HCl (T5941) and Triton X-100 (X-100) were obtained from MilliporeSigma, St. Louis, MO. 10 000× SYBR™ Gold nucleic acid gel stain was obtained from ThermoFisher Scientific, Waltham, MA.
(§3) The alkaline lysis buffer (pH ∼ 10) was a solution of 2.5 M NaCl, 100 mM Na2EDTA, 10 mM Trizma® base, and 1% (v/v) Triton X-100 dissolved in deionized H2O (dI H2O). […] The neutralization buffer (pH ∼ 7.5) was prepared by dissolving Trizma® HCl in distilled H2O to a final concentration of 0.4 M.
(§4) Cells encapsulated in CometChip were lysed in the alkaline lysis buffer overnight at 4°C. The nuclei were unwound in the alkaline unwinding buffer for 40 min at 4°C, and the DNA was electrophoresed in the same buffer at the same temperature for 30 min at 1 V/cm and ∼300 mA. The CometChip was then washed three times in neutralization buffer by submerging for 5 min each time.
(§5) The DNA on CometChip was stained for 15 min at room temperature with 1× of SYBR™ Gold diluted in PBS, protected from light. Fluorescent images of the comets were captured at 40× magnification using an epifluorescence microscope (Nikon Eclipse 80i, Nikon Instruments, Inc., Melville, NY, USA) with a 480 nm excitation filter. Image acquisition was achieved by automatic scanning using a motorized XY stage. Comet images were automatically analyzed using Guicometanalyzer, a custom software developed in MATLAB (The MathWorks Inc., Natick, MA, USA) as previously described ([15]). For each condition, 100 comets or more were analysed. Outputs from Guicometanalyzer were processed and imported to a spreadsheet (Microsoft Excel, Microsoft Office Suite 2016) using Comet2Excel, an in-house software developed in Python (Python Software Foundation, Python version 2.7.10). Software is freely available upon request.
For this experiment, the comets were analysed using Trevigen® Comet Analysis Software.
(§6) A vehicle control condition was included by diluting DMSO in cell culture medium to get a final concentration of 0.5%. Cells were incubated with the test compound for 24 h at 37°C in the presence of 5% CO2.
HepaRG™ were incubated with the test compound for 24 h at 37°C in the presence of 5% CO2. A vehicle control (1% DMSO) was included.

[2] = cited from earlier work
CYP1A2 [3] = target: T1, CYP1A2 (Homo sapiens, UniProt P05177); format: cell-based; set-up: The activity levels of CYP3A4 and CYP1A2 in cells were measured according to the manufacturer's protocol for non-lytic cell-based assays; endogenous in cells; host or cells: HepG2; conditions: human
T1 sequence (P05177 whole entry): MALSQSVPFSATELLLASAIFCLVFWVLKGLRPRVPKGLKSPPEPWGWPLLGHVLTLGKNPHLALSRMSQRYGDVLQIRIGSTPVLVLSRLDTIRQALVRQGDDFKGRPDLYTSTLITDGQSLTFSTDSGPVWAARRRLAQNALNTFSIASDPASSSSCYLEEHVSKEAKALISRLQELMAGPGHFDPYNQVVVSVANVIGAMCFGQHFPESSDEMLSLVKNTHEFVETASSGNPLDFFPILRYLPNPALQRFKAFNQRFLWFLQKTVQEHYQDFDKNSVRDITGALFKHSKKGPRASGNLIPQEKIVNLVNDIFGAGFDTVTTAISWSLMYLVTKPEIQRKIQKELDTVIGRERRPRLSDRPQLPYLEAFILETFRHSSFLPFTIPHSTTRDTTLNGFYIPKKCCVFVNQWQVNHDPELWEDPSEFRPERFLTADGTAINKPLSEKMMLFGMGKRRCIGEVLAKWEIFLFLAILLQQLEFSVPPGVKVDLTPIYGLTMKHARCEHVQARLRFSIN
Description: (§7) The CYP450-Glo™ CYP3A4 assay with luciferin-IPA (V9001) and the CYP450-Glo™ CYP1A2 assay with luciferin-1A2 (V8421) were purchased from Promega, Madison, WI. The activity levels of CYP3A4 and CYP1A2 in cells were measured according to the manufacturer's protocol for non-lytic cell-based assays. Luminescent signals were recorded using a SpectraMax M2e microplate reader (Molecular Devices, Sunnyvale, CA, USA). Control wells with no cells were included to obtain background luminescence. The net signal for each sample was obtained by subtracting the background luminescence value.
(§8) CYP3A4 or CYP1A2 activity per cell can be obtained by normalizing CYP450-Glo™ values with cell numbers. After a sample was analyzed for CYP3A4 or CYP1A2 activity, the CTG® assay was performed to obtain an estimate of the number of viable cells in the sample. The result from CYP450-Glo™ was then divided by the CTG® value to obtain the average CYP3A4 or CYP1A2 activity per cell.

CYP1A2 [4] = target: T1, CYP1A2; format: cell-based; conditions: human
Description: as §7, §8

HepG2 cells = system: HepG2 cells
Description: HepG2 (ATCC® HB-8065™), an immortalized cell line derived from human hepatocellular carcinoma, was obtained from the American Type Culture Collection (Manassas, VA). HepG2 cells were cultured in high-glucose DMEM supplemented with 10% FBS, 1× GlutaMAX™, and 100 U/ml Pen-Strep. For chemical exposures, exponentially growing cells were plated in a tissue cultured treated 96-well plate two days before treatment.
as §1, §2, §3, §4, §5, §6
HepG2 were incubated with the test compound for 24 h at 37°C in the presence of 5% CO2. A vehicle control (0.07% sodium bicarbonate) was included.
Cells embedded in CometChip were placed on ice and irradiated with 0, 0.9, 1.8, 3.6, 5.4, 7.2 and 9 Gy of gamma rays from a Cs 137 radiation source with a dose rate of 0.9 Gy/min. The irradiated cells were submerged into lysis buffer overnight and the alkaline CometChip assay performed as described above.

HepaRG™ cells [5] = format: cell-based, human
Description: The CTG® luminescent cell viability assay kit (G7570) was obtained from Promega, Madison, WI. Cell viability after 24 h of chemical treatment was measured according to the manufacturer's instructions. Luminescent signals were recorded using a SpectraMax M2e microplate reader (Molecular Devices, Sunnyvale, CA, USA) at room temperature. The emission bracket was from 360 to 750 nm. Control wells with no cells were included to obtain background luminescence, which was then subtracted from the signal measured in the sample wells.

[6] = 1 mM HU and 10 μM AraC, 24 h, doses with statistically significant result
[7] = 1 mM HU and 10 μM AraC, 24 h exposure

## Cc1ccc(N)cc1N [2,4-DAT, 2,4-Diaminotoluene]
HepaRG™ cells [1]; [6]
  Alkaline CometChip HepaRG (+ HU + AraC) ‘+’ dose range: 10 mM
HepaRG™ cells [1]; [7]
  Genotoxicity Alkaline CometChip HepaRG (+ HU + AraC) +/−: +
HepaRG™ cells [1]; without HU/AraC, 24 h exposure
  Genotoxicity Alkaline CometChip HepaRG +/−: −
[2]
  Carcinogenicity IARC classification: Group 2B

## O=c1cc(-c2ccccc2)oc2c1ccc1ccccc12 [ANF, α-Naphthoflavone]
HepaRG™ cells [1]
  DNA damage by inhibitor alone: does not induce DNA damage
  Level of B[a]P-induced SSBs in the presence of ANF: near background levels
CYP1A2 [3]
  B[a]P induction of CYP1A2 in the presence of ANF: induction of CYP1A2 is prevented
CYP1A2 [4]
  B[a]P induction of CYP1A2 in the presence of ANF: induction of CYP1A2 is prevented
HepG2 cells
  DNA damage by inhibitor alone: does not induce DNA damage
  Level of B[a]P-induced SSBs in the presence of ANF: near background levels
TK6 cells
  DNA damage by inhibitor alone: does not induce DNA damage

## O=C(N[C@H](CO)[C@H](O)c1ccc([N+](=O)[O-])cc1)C(Cl)Cl [CAM, Chloramphenicol]
HepaRG™ cells [1]; [6]
  Alkaline CometChip HepaRG (+ HU + AraC) ‘+’ dose range: 3.1 mM
HepaRG™ cells [5]; HepaRG, 24 h, CTG
  Cytotoxicity: high levels of cytotoxicity

## O=P1(N(CCCl)CCCl)NCCCO1 (centres unmarked) [CP, Cyclophosphamide monohydrate]
HepaRG™ cells [1]
  DNA damage score: positives
  Genotoxicity Alkaline CometChip HepaRG (+ HU + AraC) +/−: +
  Genotoxicity Alkaline CometChip HepaRG +/−: −
HepaRG™ cells [1]; human
  Alkaline CometChip HepaRG (+ HU + AraC) ‘+’ dose range: 5 to 10 mM

## N.N.[Cl][Pt][Cl] [Cisplatin, cis-Diamineplatinum(II) dichloride]
HepaRG™ cells [1]; HepaRG, using HU/AraC, 24 h
  DNA damage score: negative results
[2]
  Carcinogenicity IARC classification: Group 2A

## COc1cc([C@@H]2c3cc4c(cc3[C@@H](O[C@@H]3O[C@@H]5CO[C@@H](C)O[C@H]5[C@H](O)[C@H]3O)[C@H]3COC(=O)[C@H]23)OCO4)cc(OC)c1O [Etoposide]
HepaRG™ cells [1]
  Genotoxicity Alkaline CometChip HepaRG (+ HU + AraC) +/−: +
  Genotoxicity Alkaline CometChip HepaRG +/−: −

## OO [H2O2]
TK6 cells; TK6 cells, 50 μM H2O2
  Comets on alkaline CometChip (comet tails): visibly large tails

## Oc1ccc(O)cc1 [HQ, Hydroquinone]
HepaRG™ cells [1]
  Genotoxicity Alkaline CometChip HepaRG (+ HU + AraC) +/−: +
  Genotoxicity Alkaline CometChip HepaRG +/−: −
HepaRG™ cells [1]; human
  Alkaline CometChip HepaRG (+ HU + AraC) ‘+’ dose range: 0.33 mM
HepaRG™ cells [5]
  Cytotoxicity: high levels of cytotoxicity

## CC(=O)N1CCN(c2ccc(OCC3COC(Cn4ccnc4)(c4ccc(Cl)cc4Cl)O3)cc2)CC1 (centres unmarked) [KET, Ketoconazole]
HepaRG™ cells [1]
  DNA damage by inhibitor alone: does not induce DNA damage
  Level of AFB1-induced SSBs in the presence of KET: reduced to near background levels
HepG2 cells
  DNA damage by inhibitor alone: does not induce DNA damage
TK6 cells
  DNA damage by inhibitor alone: does not induce DNA damage

## CN(C)N=O [NDMA, N-Nitrosodimethylamine]
HepaRG™ cells [1]; [6]
  Alkaline CometChip HepaRG (+ HU + AraC) ‘+’ dose range: 2.5 to 20 mM
HepaRG™ cells [1]; [7]
  Genotoxicity Alkaline CometChip HepaRG (+ HU + AraC) +/−: +
HepaRG™ cells [1]; HepaRG, in the absence of HU/AraC, 24 h
  DNA damage score: positive result
HepaRG™ cells [1]; without HU/AraC, 24 h, doses with statistically significant result
  Alkaline CometChip HepaRG ‘+’ dose range: 2.5 to 20 mM
HepaRG™ cells [1]; without HU/AraC, 24 h exposure
  Genotoxicity Alkaline CometChip HepaRG +/−: +
[2]
  Carcinogenicity IARC classification: Group 2A

## Nc1ccc(Cl)cc1 [PCA, p-Chloroaniline]
HepaRG™ cells [1]; HepaRG, using HU/AraC, 24 h
  DNA damage score: negative results
HepaRG™ cells [5]; HepaRG, highest dose (5 mM), 24 h
  Cell death: ~50%
[2]
  Carcinogenicity IARC classification: Group 2B

## C[C@H]1[C@H](OC(=O)CCC(=O)O)O[C@@H]2O[C@@]3(C)CC[C@H]4[C@H](C)CC[C@@H]1[C@@]24OO3 [artesunate, Artesunate]
HepG2 cells; HepG2, 24 h, absence vs presence of 1 mM HU and 10 μM AraC
  DNA damaging potential: HU/AraC reveals a wider range of genotoxic artesunate doses

## Aflatoxin B1 [AFB1]
HepaRG™ cells [1]
  SSBs, dose-response: strong dose-response relationship
HepG2 cells
  Average % Tail DNA: 21.9% and 33.4%
  SSBs, dose-response: relatively small increase in SSBs
TK6 cells
  SSBs, response: no response
